The supplement of paper PMC13380429
± gives the standard deviation of the averaged measurements.

What was measured:
Details in all cases: 72 h
Caco-2 [1] = experiment: drug sensitivity score (DSS) for viability; higher = more toxic; extreme values may be limits of the assay
HepG2 [2] = experiment: as above
Calu-3 [3] = experiment: as above
Vero E6 [4] = experiment: as above
U2OS [5] = experiment: as above
Caco-2 [6] = experiment: cell viability relative to DMSO; higher = less toxic
HepG2 [7] = experiment: as above
Calu-3 [8] = experiment: as above
Vero E6 [9] = experiment: as above
U2OS [10] = experiment: as above
Caco-2 [11] = experiment: relative viability EC50 (midpoint between 100% and the lowest measured viability); higher = less toxic
HepG2 [12] = experiment: as above
Calu-3 [13] = experiment: as above
Vero E6 [14] = experiment: as above
U2OS [15] = experiment: as above

Question: Which results are given for OC(c1ccccc1)(c1ccccc1)C12CC[N+](CCOCc3ccccc3)(CC1)CC2 [umeclidinium]?
Answer: drug sensitivity score (Caco-2 [1]): 0; drug sensitivity score (HepG2 [2]): 0; drug sensitivity score (Calu-3 [3]): 0; drug sensitivity score (Vero E6 [4]): 0; drug sensitivity score (U2OS [5]): 0; cell viability (Caco-2 [6]; 1 nM): 105%; cell viability (Caco-2 [6]; 10 nM): 97.1%; cell viability (Caco-2 [6]; 100 nM): 94.1%; cell viability (Caco-2 [6]; 1000 nM): 104%; cell viability (Caco-2 [6]; 10000 nM): 97.8%; cell viability (HepG2 [7]; 1 nM): 96.6%; cell viability (HepG2 [7]; 10 nM): 99.5%; cell viability (HepG2 [7]; 100 nM): 101%; cell viability (HepG2 [7]; 1000 nM): 97.1%; cell viability (HepG2 [7]; 10000 nM): 106%; cell viability (Calu-3 [8]; 1 nM): 95.1%; cell viability (Calu-3 [8]; 10 nM): 102%; cell viability (Calu-3 [8]; 100 nM): 107%; cell viability (Calu-3 [8]; 1000 nM): 101%; cell viability (Calu-3 [8]; 10000 nM): 92.8%; cell viability (Vero E6 [9]; 1 nM): 97%; cell viability (Vero E6 [9]; 10 nM): 96.1%; cell viability (Vero E6 [9]; 100 nM): 92.9%; cell viability (Vero E6 [9]; 1000 nM): 96.2%; cell viability (Vero E6 [9]; 10000 nM): 101%; cell viability (U2OS [10]; 1 nM): 95.8%; cell viability (U2OS [10]; 10 nM): 99.2%; cell viability (U2OS [10]; 100 nM): 98.7%; cell viability (U2OS [10]; 1000 nM): 99%; cell viability (U2OS [10]; 10000 nM): 99.9%; relative viability EC50 (Caco-2 [11]): > 10 µM; relative viability EC50 (HepG2 [12]): > 10 µM; relative viability EC50 (Calu-3 [13]): > 10 µM; relative viability EC50 (Vero E6 [14]): > 10 µM; relative viability EC50 (U2OS [15]): > 10 µM

Question: CCCc1nc(C)c2c(=O)nc(-c3cc(S(=O)(=O)N4CCN(CC)CC4)ccc3OCC)[nH]n12 [vardenafil] was tested. Which drug sensitivity score (Caco-2 [1]) did it give?
Answer: Its drug sensitivity score is 0.

Question: And the drug sensitivity score (HepG2 [2])?
Answer: The drug sensitivity score was 0.

Question: What about the drug sensitivity score (Calu-3 [3]) of the same molecule?
Answer: Its drug sensitivity score is 0.

Question: And the drug sensitivity score (Vero E6 [4])?
Answer: Its drug sensitivity score is 0.

Question: And the drug sensitivity score (U2OS [5])?
Answer: Its drug sensitivity score is 0.

Question: And the cell viability (Caco-2 [6]; 1 nM)?
Answer: Its cell viability is 95.7%.

Question: What about the cell viability (Caco-2 [6]; 10 nM) of the same molecule?
Answer: Its cell viability is 93%.

Question: And the cell viability (Caco-2 [6]; 100 nM)?
Answer: The cell viability was 101%.

Question: What about the cell viability (Caco-2 [6]; 1000 nM) of the same molecule?
Answer: Its cell viability is 104%.

Question: What about the cell viability (Caco-2 [6]; 10000 nM) of the same molecule?
Answer: The cell viability was 99.9%.

Question: What about the cell viability (HepG2 [7]; 1 nM) of the same molecule?
Answer: The cell viability was 98.7%.

Question: And the cell viability (HepG2 [7]; 10 nM)?
Answer: The cell viability was 100%.

Question: And the cell viability (HepG2 [7]; 100 nM)?
Answer: Its cell viability is 96.4%.

Question: And the cell viability (HepG2 [7]; 1000 nM)?
Answer: Its cell viability is 101%.

Question: What about the cell viability (HepG2 [7]; 10000 nM) of the same molecule?
Answer: Its cell viability is 89.8%.

Question: What about the cell viability (Calu-3 [8]; 1 nM) of the same molecule?
Answer: Its cell viability is 105%.

Question: What about the cell viability (Calu-3 [8]; 10 nM) of the same molecule?
Answer: Its cell viability is 88.8%.

Question: What about the cell viability (Calu-3 [8]; 100 nM) of the same molecule?
Answer: The cell viability was 99.5%.

Question: What about the cell viability (Calu-3 [8]; 1000 nM) of the same molecule?
Answer: The cell viability was 96.5%.

Question: And the cell viability (Calu-3 [8]; 10000 nM)?
Answer: The cell viability was 101%.

Question: What about the cell viability (Vero E6 [9]; 1 nM) of the same molecule?
Answer: The cell viability was 100%.

Question: And the cell viability (Vero E6 [9]; 10 nM)?
Answer: Its cell viability is 107%.

Question: And the cell viability (Vero E6 [9]; 100 nM)?
Answer: The cell viability was 102%.

Question: And the cell viability (Vero E6 [9]; 1000 nM)?
Answer: Its cell viability is 106%.

Question: And the cell viability (Vero E6 [9]; 10000 nM)?
Answer: The cell viability was 99.6%.

Question: What about the cell viability (U2OS [10]; 1 nM) of the same molecule?
Answer: Its cell viability is 102%.

Question: What about the cell viability (U2OS [10]; 10 nM) of the same molecule?
Answer: The cell viability was 98.1%.

Question: And the cell viability (U2OS [10]; 100 nM)?
Answer: The cell viability was 103%.

Question: What about the cell viability (U2OS [10]; 1000 nM) of the same molecule?
Answer: Its cell viability is 99.1%.

Question: What about the cell viability (U2OS [10]; 10000 nM) of the same molecule?
Answer: The cell viability was 99.5%.

Question: And the “relative viability EC50” value (Caco-2 [11])?
Answer: The value was over 10 µM.

Question: And the “relative viability EC50” value (HepG2 [12])?
Answer: Its value is over 10 µM.

Question: What about the “relative viability EC50” value (Calu-3 [13]) of the same molecule?
Answer: The value was over 10 µM.

Question: And the “relative viability EC50” value (Vero E6 [14])?
Answer: The value was over 10 µM.

Question: What about the “relative viability EC50” value (U2OS [15]) of the same molecule?
Answer: Its value is over 10 µM.

Question: Which drug sensitivity score (Caco-2 [1]) does the source give for Nc1ccn([C@H]2CC[C@@H](CO)O2)c(=O)n1 [zalcitabine] here?
Answer: The drug sensitivity score was 0.

Question: What about the drug sensitivity score (HepG2 [2]) of the same molecule?
Answer: The drug sensitivity score was 0.

Question: What about the drug sensitivity score (Calu-3 [3]) of the same molecule?
Answer: Its drug sensitivity score is 0.

Question: And the drug sensitivity score (Vero E6 [4])?
Answer: The drug sensitivity score was 0.

Question: And the drug sensitivity score (U2OS [5])?
Answer: The drug sensitivity score was 0.

Question: What about the cell viability (Caco-2 [6]; 1 nM) of the same molecule?
Answer: Its cell viability is 94.2%.

Question: And the cell viability (Caco-2 [6]; 10 nM)?
Answer: The cell viability was 99.2%.

Question: And the cell viability (Caco-2 [6]; 100 nM)?
Answer: The cell viability was 90.6%.

Question: What about the cell viability (Caco-2 [6]; 1000 nM) of the same molecule?
Answer: Its cell viability is 93.5%.

Question: And the cell viability (Caco-2 [6]; 10000 nM)?
Answer: Its cell viability is 98.7%.

Question: What about the cell viability (HepG2 [7]; 1 nM) of the same molecule?
Answer: The cell viability was 101%.

Question: And the cell viability (HepG2 [7]; 10 nM)?
Answer: Its cell viability is 93.1%.

Question: What about the cell viability (HepG2 [7]; 100 nM) of the same molecule?
Answer: The cell viability was 98.3%.

Question: And the cell viability (HepG2 [7]; 1000 nM)?
Answer: The cell viability was 94.8%.

Question: And the cell viability (HepG2 [7]; 10000 nM)?
Answer: Its cell viability is 98.9%.

Question: And the cell viability (Calu-3 [8]; 1 nM)?
Answer: The cell viability was 99.2%.

Question: What about the cell viability (Calu-3 [8]; 10 nM) of the same molecule?
Answer: Its cell viability is 91.1%.

Question: And the cell viability (Calu-3 [8]; 100 nM)?
Answer: The cell viability was 103%.

Question: What about the cell viability (Calu-3 [8]; 1000 nM) of the same molecule?
Answer: The cell viability was 101%.

Question: What about the cell viability (Calu-3 [8]; 10000 nM) of the same molecule?
Answer: The cell viability was 106%.

Question: And the cell viability (Vero E6 [9]; 1 nM)?
Answer: Its cell viability is 102%.

Question: What about the cell viability (Vero E6 [9]; 10 nM) of the same molecule?
Answer: The cell viability was 104%.

Question: And the cell viability (Vero E6 [9]; 100 nM)?
Answer: Its cell viability is 100%.

Question: What about the cell viability (Vero E6 [9]; 1000 nM) of the same molecule?
Answer: Its cell viability is 99.1%.

Question: What about the cell viability (Vero E6 [9]; 10000 nM) of the same molecule?
Answer: The cell viability was 90.9%.

Question: What about the cell viability (U2OS [10]; 1 nM) of the same molecule?
Answer: The cell viability was 101%.

Question: What about the cell viability (U2OS [10]; 10 nM) of the same molecule?
Answer: Its cell viability is 105%.

Question: And the cell viability (U2OS [10]; 100 nM)?
Answer: The cell viability was 94.2%.

Question: What about the cell viability (U2OS [10]; 1000 nM) of the same molecule?
Answer: Its cell viability is 97.2%.

Question: And the cell viability (U2OS [10]; 10000 nM)?
Answer: Its cell viability is 99.1%.

Question: What about the “relative viability EC50” value (Caco-2 [11]) of the same molecule?
Answer: The value was over 10 µM.

Question: What about the “relative viability EC50” value (HepG2 [12]) of the same molecule?
Answer: The value was over 10 µM.

Question: And the “relative viability EC50” value (Calu-3 [13])?
Answer: Its value is over 10 µM.

Question: And the “relative viability EC50” value (Vero E6 [14])?
Answer: The value was over 10 µM.

Question: What about the “relative viability EC50” value (U2OS [15]) of the same molecule?
Answer: Its value is over 10 µM.

Question: What does the source list for CC(C)N[C@H]1CCn2c(=O)[nH]c3cccc(c32)[C@@H]1O [zilpaterol]?
Answer: drug sensitivity score (Caco-2 [1]): 0; drug sensitivity score (HepG2 [2]): 0; drug sensitivity score (Calu-3 [3]): 0; drug sensitivity score (Vero E6 [4]): 0; drug sensitivity score (U2OS [5]): 0; cell viability (Caco-2 [6]; 1 nM): 92.8 ± 2.5%; cell viability (Caco-2 [6]; 10 nM): 97.75 ± 0.071%; cell viability (Caco-2 [6]; 100 nM): 100 ± 3.2%; cell viability (Caco-2 [6]; 1000 nM): 96.9 ± 2.5%; cell viability (Caco-2 [6]; 10000 nM): 95.3 ± 9.4%; cell viability (HepG2 [7]; 1 nM): 104.9 ± 0.57%; cell viability (HepG2 [7]; 10 nM): 105.5 ± 0.78%; cell viability (HepG2 [7]; 100 nM): 104 ± 2%; cell viability (HepG2 [7]; 1000 nM): 95.95 ± 0.071%; cell viability (HepG2 [7]; 10000 nM): 105 ± 3%; cell viability (Calu-3 [8]; 1 nM): 103 ± 1.5%; cell viability (Calu-3 [8]; 10 nM): 97.2 ± 10%; cell viability (Calu-3 [8]; 100 nM): 105 ± 1.1%; cell viability (Calu-3 [8]; 1000 nM): 93 ± 3.9%; cell viability (Calu-3 [8]; 10000 nM): 97.5 ± 0.42%; cell viability (Vero E6 [9]; 1 nM): 98.1 ± 11%; cell viability (Vero E6 [9]; 10 nM): 99.5 ± 0.28%; cell viability (Vero E6 [9]; 100 nM): 94.8 ± 8.6%; cell viability (Vero E6 [9]; 1000 nM): 99 ± 7.4%; cell viability (Vero E6 [9]; 10000 nM): 104 ± 9.6%; cell viability (U2OS [10]; 1 nM): 100 ± 2.1%; cell viability (U2OS [10]; 10 nM): 99.1 ± 5.2%; cell viability (U2OS [10]; 100 nM): 97.4 ± 3%; cell viability (U2OS [10]; 1000 nM): 98.6 ± 8.3%; cell viability (U2OS [10]; 10000 nM): 101 ± 3.3%; relative viability EC50 (Caco-2 [11]): > 10 µM; relative viability EC50 (HepG2 [12]): > 10 µM; relative viability EC50 (Calu-3 [13]): > 10 µM; relative viability EC50 (Vero E6 [14]): > 10 µM; relative viability EC50 (U2OS [15]): > 10 µM
